The NIST ThermoML archive (doi:10.1021/je060271a)
“And” between values parts separate entries of the source, which are not always exact repeats. Equal entries are not always repeated. ± gives the expanded uncertainty stated by the source.

Details: 303.15 K, Liquid, Vibrating tube method

Measured: mass density

CCCCCC(=O)OCC(COC(=O)CCCCC)(COC(=O)CCCCC)COC(=O)CCCCC [pentaerythritol tetrahexanoate]
999.3 ± 1.2 kg/m3: 17475 kPa | 17550 kPa | 17577 kPa | 17917 kPa
1001 ± 1.2 kg/m3: 20573 kPa | 20627 kPa | 20658 kPa | 20716 kPa | 20743 kPa | 20770 kPa | 20797 kPa | 20829 kPa
999.8 ± 1.2 kg/m3: 18377 kPa | 18476 kPa | 18504 kPa | 18528 kPa | 18657 kPa
998.9 ± 1.2 kg/m3 and 999 ± 1.2 kg/m3: 17290 kPa
1000.8 ± 1.2 kg/m3: 20136 kPa | 20162 kPa | 20248 kPa | 20274 kPa | 20324 kPa | 20350 kPa | 20381 kPa | 20515 kPa
999 ± 1.2 kg/m3: 17124 kPa | 17243 kPa | 17245 kPa | 17251 kPa | 17252 kPa | 17253 kPa | 17256 kPa | 17265 kPa | 17272 kPa | 17282 kPa | 17286 kPa | 17289 kPa | 17353 kPa
1000.5 ± 1.2 kg/m3: 19771 kPa | 19795 kPa | 19849 kPa | 19977 kPa
1000.6 ± 1.2 kg/m3: 19718 kPa | 19873 kPa | 19904 kPa | 19928 kPa | 19952 kPa | 20031 kPa | 20081 kPa
1000.2 ± 1.2 kg/m3: 19049 kPa | 19199 kPa | 19226 kPa | 19273 kPa | 19346 kPa | 19495 kPa
999.6 ± 1.2 kg/m3: 18060 kPa | 18155 kPa | 18205 kPa | 18228 kPa | 18256 kPa | 18279 kPa | 18302 kPa | 18353 kPa | 18452 kPa
999.2 ± 1.2 kg/m3: 17310 kPa | 17354 kPa | 17377 kPa | 17428 kPa
1000 ± 1.2 kg/m3: 18604 kPa | 18628 kPa | 18917 kPa | 18943 kPa | 18998 kPa | 19024 kPa | 19074 kPa | 19128 kPa
999.5 ± 1.2 kg/m3: 17939 kPa | 17988 kPa | 18037 kPa | 18083 kPa | 18105 kPa
999.4 ± 1.2 kg/m3: 17961 kPa | 18010 kPa | 18132 kPa
1000.3 ± 1.2 kg/m3: 19249 kPa | 19296 kPa | 19374 kPa | 19397 kPa | 19420 kPa | 19443 kPa | 19471 kPa | 19518 kPa | 19595 kPa
999.7 ± 1.2 kg/m3: 18178 kPa | 18325 kPa | 18400 kPa | 18428 kPa | 18551 kPa
1001.1 ± 1.2 kg/m3: 20685 kPa
1000.1 ± 1.2 kg/m3: 19104 kPa | 19154 kPa | 19177 kPa | 19323 kPa
998.9 ± 1.2 kg/m3: 17144 kPa | 17164 kPa | 17186 kPa | 17201 kPa | 17216 kPa
1000.7 ± 1.2 kg/m3: 20006 kPa | 20056 kPa | 20111 kPa | 20192 kPa
999.9 ± 1.2 kg/m3: 18580 kPa | 18968 kPa
1000.4 ± 1.2 kg/m3: 19546 kPa | 19570 kPa | 19618 kPa | 19642 kPa | 19670 kPa | 19694 kPa | 19747 kPa | 19824 kPa
999.1 ± 1.2 kg/m3: 17229 kPa | 17247 kPa | 17248 kPa | 17250 kPa | 17254 kPa | 17267 kPa | 17296 kPa | 17330 kPa | 17334 kPa | 17348 kPa | 17400 kPa | 17452 kPa | 17503 kPa | 17526 kPa
1000.9 ± 1.2 kg/m3: 20217 kPa | 20299 kPa | 20406 kPa | 20432 kPa | 20463 kPa | 20489 kPa | 20547 kPa | 20600 kPa
